Reference: patent publication US20080213415A1, “Treatment of Glaucoma and Diabetic Retinopathy with Morinda Citrifolia Enhanced Formulations” (priority 2007, published 2008)
Like-named read-outs stand apart in the source and are kept apart here.

Columns and labels:
[1] = biological target: T1, Fatty acid amide hydrolase (FAAH) (Rattus norvegicus, UniProt P97612); assay: Fatty acid amide hydrolase (FAAH) inhibition, quantitation of labelled ethanolamine; type: biochemical, Wistar Rat; conditions: reference compound, concurrent
T1 sequence (P97612 1-579): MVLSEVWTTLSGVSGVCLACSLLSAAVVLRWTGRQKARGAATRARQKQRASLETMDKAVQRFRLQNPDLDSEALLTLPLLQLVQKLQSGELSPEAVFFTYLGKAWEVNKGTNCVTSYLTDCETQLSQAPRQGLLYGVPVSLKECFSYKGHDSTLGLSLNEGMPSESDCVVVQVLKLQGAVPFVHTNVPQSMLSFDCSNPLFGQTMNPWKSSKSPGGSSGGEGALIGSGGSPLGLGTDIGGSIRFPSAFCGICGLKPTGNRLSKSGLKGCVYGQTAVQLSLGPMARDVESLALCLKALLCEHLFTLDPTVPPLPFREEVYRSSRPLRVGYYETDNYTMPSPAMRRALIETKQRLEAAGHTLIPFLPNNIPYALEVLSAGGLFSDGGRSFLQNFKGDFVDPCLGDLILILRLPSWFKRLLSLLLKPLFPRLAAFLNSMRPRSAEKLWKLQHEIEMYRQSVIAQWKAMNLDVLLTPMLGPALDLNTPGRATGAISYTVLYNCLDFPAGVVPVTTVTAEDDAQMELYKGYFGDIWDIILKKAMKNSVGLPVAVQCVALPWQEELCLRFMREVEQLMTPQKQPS

[2] = biological target: T1, Fatty acid amide hydrolase (FAAH); conditions: reference compound, historical value; cited from earlier work

IC50 ([1]; batch 144029): 23.5 nM
IC50 ([1]; batch 144988): 35.5 nM
SMILES: CCCCCCCC/C=C\CCCCCCCC(=O)C(F)(F)F [Oleyl Trifluormethyl Ketone]
IC50 [2]: 29 nM
